Results taken from patent US5055302A, “Neuropeptide control of ocular growth” (Trustees of the University of Pennsylvania, priority 1990, dated 1991).
“Also recorded” adds a separate entry of the source.

Columns and labels:
[1] = system: lid-sutured eyes; experiment: Form deprivation myopia induced by eyelid suture in chicks; VIP given daily by subconjunctival injection to the sutured eye, ocular dimensions measured with calipers; assay type: in vivo, White Leghorn chicks; details: for Axial length (deprived minus control eye), mean ± S.E.M. / Equatorial diameter (deprived minus control eye), mean ± S.E.M.: subconjunctival
Protocol: (§1) Form deprivation myopia in day-old White Leghorn chicks was induced by eyelid suture under aseptic conditions and ether anesthesia. One eyelid of the chicks was sutured. […] Translucent vision is permitted through the eyelid. The contralateral unsutured open eye served as the control eye. VIP was administered daily to the deprived, or sutured, eye. Saline was administered to the unsutured eye. All agents were given under ether anesthesia by subconjunctival injection. The chicks were maintained on a 12 hour light/dark cycle. The birds were killed at ages up to 4 weeks by decapitation under deep pentobarbital anesthesia. Axial and equatorial dimensions of unfixed eyes were measured with vernier calipers.
(§2) VIP (porcine VIP, Peninsula Laboratories, Inc. Belmont Calif.) was administered in three (descending) dose levels to lid-sutured eyes of 23 chicks and to one eye of an additional 15 chicks which had both eyes open.

[2] = system: open eyes; experiment: Effect of VIP on growth of open eyes (control chicks with both eyes open, one eye treated); assay type: in vivo, White Leghorn chicks; details: for Axial length (treated eye minus untreated eye), mean ± S.E.M. / Equatorial diameter (treated eye minus untreated eye), mean ± S.E.M.: open eyes, subconjunctival
Protocol: as §1, §2

CC[C@H](C)[C@H](NC(=O)[C@H](CO)NC(=O)[C@H](CC(N)=O)NC(=O)[C@H](CC(C)C)NC(=O)[C@H](Cc1ccc(O)cc1)NC(=O)[C@H](CCCCN)NC(=O)[C@H](CCCCN)NC(=O)[C@@H](NC(=O)[C@H](C)NC(=O)[C@H](CCSC)NC(=O)[C@H](CCC(N)=O)NC(=O)[C@H](CCCCN)NC(=O)[C@H](CCCNC(=N)N)NC(=O)[C@H](CC(C)C)NC(=O)[C@H](CCCNC(=N)N)NC(=O)[C@@H](NC(=O)[C@H](Cc1ccc(O)cc1)NC(=O)[C@H](CC(N)=O)NC(=O)[C@H](CC(=O)O)NC(=O)[C@@H](NC(=O)[C@H](Cc1ccccc1)NC(=O)[C@@H](NC(=O)[C@H](C)NC(=O)[C@H](CC(=O)O)NC(=O)[C@H](CO)NC(=O)[C@@H](N)Cc1c[nH]cn1)C(C)C)[C@@H](C)O)[C@@H](C)O)C(C)C)C(=O)N[C@@H](CC(C)C)C(=O)N[C@@H](CC(N)=O)C(N)=O [VIP, vasoactive intestinal peptide]
Block of axial elongation ([1]; 0.25 μg dose): ~80%
Treatment effect on axial length, one way analysis of variance ([1]; (p<0.05)): significant treatment effects
Treatment effect on equatorial diameters ([1]; VIP treatment, all doses): no significant treatment effects
Axial length (deprived minus control eye), mean ± S.E.M. ([1]; daily dose 0.025 μg): 0.17 ± 0.10 mm
Equatorial diameter (deprived minus control eye), mean ± S.E.M. ([1]; daily dose 0.025 μg): 0.91 ± 0.05 mm
Axial length (deprived minus control eye), mean ± S.E.M. ([1]; daily dose 0.25 μg): 0.07 ± 0.07 mm
Equatorial diameter (deprived minus control eye), mean ± S.E.M. ([1]; daily dose 0.25 μg): 0.92 ± 0.04 mm
Effective range of the peptide ([1]; daily dose 2.5 μg): outside the effective range
Axial length (deprived minus control eye), mean ± S.E.M. ([1]; daily dose 2.5 μg): 0.34 ± 0.15 mm
Equatorial diameter (deprived minus control eye), mean ± S.E.M. ([1]; daily dose 2.5 μg): 0.90 ± 0.10 mm
Treatment effect on axial length, one way analysis of variance ([1]; dose 0.25 μg (p<0.001)): profound treatment effect; also recorded: significant treatment effects
Treatment effect on axial or equatorial diameters ([2]; controls (both eyes open), all three levels of VIP): no significant treatment effect
Axial length (treated eye minus untreated eye), mean ± S.E.M. ([2]; daily dose 0.025 μg): 0.008 ± 0.10 mm
Equatorial diameter (treated eye minus untreated eye), mean ± S.E.M. ([2]; daily dose 0.025 μg): 0.07 ± 0.04 mm
Axial length (treated eye minus untreated eye), mean ± S.E.M. ([2]; daily dose 0.25 μg): 0.03 ± 0.05 mm
Equatorial diameter (treated eye minus untreated eye), mean ± S.E.M. ([2]; daily dose 0.25 μg): 0.02 ± 0.02 mm
Axial length (treated eye minus untreated eye), mean ± S.E.M. ([2]; daily dose 2.5 μg): 0.13 ± 0.06 mm
Equatorial diameter (treated eye minus untreated eye), mean ± S.E.M. ([2]; daily dose 2.5 μg): -0.01 ± 0.06 mm
